From ChEMBL document CHEMBL3885881, “DrugMatrix”

Organism: Rattus norvegicus
Test: DrugMatrix - Regimen: Daily Repeat
Assay type: toxicity, organism-based, Sprague-Dawley
Parameters: regimen Daily Repeat, gender Male, age 6-8 weeks
Details: in vivo, po, route oral GAVAGE, vehicle 100 % WATER; for ABSOLUTE BASOPHIL / ABSOLUTE EOSINOPHIL / ABSOLUTE LYMPHOCYTE / ABSOLUTE MONOCYTE / ABSOLUTE SEGMENTED NEUTROPHIL / BASOPHIL / EOSINOPHIL / ERYTHROCYTE COUNT / HEMATOCRIT / HEMOGLOBIN / LEUKOCYTE COUNT / LYMPHOCYTE / MEAN CORPUSCULAR HEMOGLOBIN / MEAN CORPUSCULAR HEMOGLOBIN CONCENTRATION / MEAN CORPUSCULAR VOLUME / MONOCYTE / NEUTROPHIL / NUCLEATED RED BLOOD CELLS / PLATELET COUNT: tissue Blood; for ALANINE AMINOTRANSFERASE / ALBUMIN / ALKALINE PHOSPHATASE / ASPARTATE AMINOTRANSFERASE / BLOOD UREA NITROGEN / CARBON DIOXIDE / CHLORIDE / CHOLESTEROL / CREATINE PHOSPHOKINASE / CREATININE / GLUCOSE / LACTATE DEHYDROGENASE / LIPASE / PHOSPHORUS / POTASSIUM / SODIUM / TOTAL BILIRUBIN / TOTAL PROTEIN / URIC ACID: tissue Plasma
[1] = 20 mg/kg, 72 h, dose level Low, time 3 day
[2] = 20 mg/kg, 120 h, dose level Low, time 5 day
[3] = 2000 mg/kg, 72 h, dose level High, time 3 day
[4] = 2000 mg/kg, 120 h, dose level High, time 5 day

`C[C@H]1O[C@H](O[C@H]2[C@H](O)[C@@H](O)[C@@H](O[C@H]3[C@H](O)[C@@H](O)C(O)O[C@@H]3CO)O[C@@H]2CO)[C@H](O)[C@@H](O)[C@@H]1N[C@H]1C=C(CO)[C@@H](O)[C@H](O)[C@H]1O` (some centres not stated) [ACARBOSE] was tested, and the “ABSOLUTE BASOPHIL” value [1] was 0 CELLS/uL, the “ABSOLUTE EOSINOPHIL” value [1] was 64.67 CELLS/uL and the “ABSOLUTE LYMPHOCYTE” value [1] was 10120.67 CELLS/uL. The “ABSOLUTE MONOCYTE” value [1] was 0 CELLS/uL, the “ABSOLUTE SEGMENTED NEUTROPHIL” value [1] was 948 CELLS/uL and the BASOPHIL [1] was 0%. The EOSINOPHIL [1] was 0.67%, the “ERYTHROCYTE COUNT” value [1] was 5.03 x10E6/uL and the HEMATOCRIT [1] was 31.8%. For the same compound, the HEMOGLOBIN [1] was 12.87 G/DL, the “LEUKOCYTE COUNT” value [1] was 11.13 x10E3/uL and the LYMPHOCYTE [1] was 91.33%. The “MEAN CORPUSCULAR HEMOGLOBIN” value [1] was 25.6 pg, the “MEAN CORPUSCULAR HEMOGLOBIN CONCENTRATION” value [1] was 40.47 G/DL and the “MEAN CORPUSCULAR VOLUME” value [1] was 63.17 fL. For the same compound, the MONOCYTE [1] was 0%, the NEUTROPHIL [1] was 8% and the “NUCLEATED RED BLOOD CELLS” value [1] was 0 /100WBC. The “PLATELET COUNT” value [1] was 1088.33 x10E3/uL, the “ALANINE AMINOTRANSFERASE” value [1] was 51.33 u/L and the ALBUMIN [1] was 4.1 G/DL. For the same compound, the “ALKALINE PHOSPHATASE” value [1] was 389.33 u/L, the “ASPARTATE AMINOTRANSFERASE” value [1] was 87.67 u/L and the “BLOOD UREA NITROGEN” value [1] was 16.67 mg/dL. The “CARBON DIOXIDE” value [1] was 24.33 mmol/L, the CHLORIDE [1] was 102.33 MEQ/L and the CHOLESTEROL [1] was 70.33 mg/dL. The “CREATINE PHOSPHOKINASE” value [1] was 377 u/L, the CREATININE [1] was 0.18 mg/dL and the GLUCOSE [1] was 148.33 mg/dL. The “LACTATE DEHYDROGENASE” value [1] was 368.33 u/L, the LIPASE [1] was 8.33 u/L and the PHOSPHORUS [1] was 14.03 mg/dL. For the same compound, the POTASSIUM [1] was 6.96 MEQ/L, the SODIUM [1] was 145.97 MEQ/L and the “TOTAL BILIRUBIN” value [1] was 0.23 mg/dL. The “TOTAL PROTEIN” value [1] was 5.73 G/DL, the “URIC ACID” value [1] was 1.43 mg/dL and the “ABSOLUTE BASOPHIL” value [2] was 0 CELLS/uL. For the same compound, the “ABSOLUTE EOSINOPHIL” value [2] was 33.67 CELLS/uL, the “ABSOLUTE LYMPHOCYTE” value [2] was 11112 CELLS/uL and the “ABSOLUTE MONOCYTE” value [2] was 101.33 CELLS/uL. The “ABSOLUTE SEGMENTED NEUTROPHIL” value [2] was 919.67 CELLS/uL, the BASOPHIL [2] was 0% and the EOSINOPHIL [2] was 0.33%. For the same compound, the “ERYTHROCYTE COUNT” value [2] was 5.14 x10E6/uL, the HEMATOCRIT [2] was 33.7% and the HEMOGLOBIN [2] was 13.33 G/DL. For the same compound, the “LEUKOCYTE COUNT” value [2] was 12.17 x10E3/uL, the LYMPHOCYTE [2] was 91% and the “MEAN CORPUSCULAR HEMOGLOBIN” value [2] was 26 pg. The “MEAN CORPUSCULAR HEMOGLOBIN CONCENTRATION” value [2] was 39.57 G/DL, the “MEAN CORPUSCULAR VOLUME” value [2] was 65.63 fL and the MONOCYTE [2] was 1%. The NEUTROPHIL [2] was 7.67%, the “NUCLEATED RED BLOOD CELLS” value [2] was 1 /100WBC and the “PLATELET COUNT” value [2] was 1353.33 x10E3/uL. For the same compound, the “ALANINE AMINOTRANSFERASE” value [2] was 52.33 u/L, the ALBUMIN [2] was 4.4 G/DL and the “ALKALINE PHOSPHATASE” value [2] was 361.67 u/L. For the same compound, the “ASPARTATE AMINOTRANSFERASE” value [2] was 74.67 u/L, the “BLOOD UREA NITROGEN” value [2] was 17.33 mg/dL and the “CARBON DIOXIDE” value [2] was 27.33 mmol/L. For the same compound, the CHLORIDE [2] was 101.33 MEQ/L, the CHOLESTEROL [2] was 74 mg/dL and the “CREATINE PHOSPHOKINASE” value [2] was 186 u/L. For the same compound, the CREATININE [2] was 0.17 mg/dL, the GLUCOSE [2] was 180.33 mg/dL and the “LACTATE DEHYDROGENASE” value [2] was 91.33 u/L. The LIPASE [2] was 8.67 u/L, the PHOSPHORUS [2] was 13.03 mg/dL and the POTASSIUM [2] was 6.7 MEQ/L. For the same compound, the SODIUM [2] was 145.5 MEQ/L, the “TOTAL BILIRUBIN” value [2] was 0.2 mg/dL and the “TOTAL PROTEIN” value [2] was 6.1 G/DL. The “URIC ACID” value [2] was 1.6 mg/dL, the “ABSOLUTE BASOPHIL” value [3] was 0 CELLS/uL and the “ABSOLUTE EOSINOPHIL” value [3] was 47 CELLS/uL. The “ABSOLUTE LYMPHOCYTE” value [3] was 15977.33 CELLS/uL, the “ABSOLUTE MONOCYTE” value [3] was 106.67 CELLS/uL and the “ABSOLUTE SEGMENTED NEUTROPHIL” value [3] was 835.67 CELLS/uL. For the same compound, the BASOPHIL [3] was 0%, the EOSINOPHIL [3] was 0.33% and the “ERYTHROCYTE COUNT” value [3] was 5.96 x10E6/uL. For the same compound, the HEMATOCRIT [3] was 39.13%, the HEMOGLOBIN [3] was 15.37 G/DL and the “LEUKOCYTE COUNT” value [3] was 16.97 x10E3/uL. For the same compound, the LYMPHOCYTE [3] was 94%, the “MEAN CORPUSCULAR HEMOGLOBIN” value [3] was 25.73 pg and the “MEAN CORPUSCULAR HEMOGLOBIN CONCENTRATION” value [3] was 39.27 G/DL. For the same compound, the “MEAN CORPUSCULAR VOLUME” value [3] was 65.6 fL, the MONOCYTE [3] was 0.67% and the NEUTROPHIL [3] was 5%. The “NUCLEATED RED BLOOD CELLS” value [3] was 1 /100WBC, the “PLATELET COUNT” value [3] was 1523.33 x10E3/uL and the “ALANINE AMINOTRANSFERASE” value [3] was 43 u/L. For the same compound, the ALBUMIN [3] was 4.63 G/DL, the “ALKALINE PHOSPHATASE” value [3] was 324.67 u/L and the “ASPARTATE AMINOTRANSFERASE” value [3] was 88 u/L. The “BLOOD UREA NITROGEN” value [3] was 20.33 mg/dL, the “CARBON DIOXIDE” value [3] was 28.33 mmol/L and the CHLORIDE [3] was 105.67 MEQ/L. For the same compound, the CHOLESTEROL [3] was 86 mg/dL, the “CREATINE PHOSPHOKINASE” value [3] was 443.33 u/L and the CREATININE [3] was 0.21 mg/dL. For the same compound, the GLUCOSE [3] was 160.67 mg/dL, the “LACTATE DEHYDROGENASE” value [3] was 447.33 u/L and the LIPASE [3] was 10 u/L. For the same compound, the PHOSPHORUS [3] was 14.07 mg/dL, the POTASSIUM [3] was 7.15 MEQ/L and the SODIUM [3] was 150.93 MEQ/L. The “TOTAL BILIRUBIN” value [3] was 0.1 mg/dL, the “TOTAL PROTEIN” value [3] was 6.8 G/DL and the “URIC ACID” value [3] was 2.5 mg/dL. The “ABSOLUTE BASOPHIL” value [4] was 0 CELLS/uL, the “ABSOLUTE EOSINOPHIL” value [4] was 0 CELLS/uL and the “ABSOLUTE LYMPHOCYTE” value [4] was 17167.33 CELLS/uL. The “ABSOLUTE MONOCYTE” value [4] was 176.67 CELLS/uL, the “ABSOLUTE SEGMENTED NEUTROPHIL” value [4] was 1189.33 CELLS/uL and the BASOPHIL [4] was 0%. The EOSINOPHIL [4] was 0%, the “ERYTHROCYTE COUNT” value [4] was 5.82 x10E6/uL and the HEMATOCRIT [4] was 35.33%. For the same compound, the HEMOGLOBIN [4] was 14.37 G/DL, the “LEUKOCYTE COUNT” value [4] was 18.53 x10E3/uL and the LYMPHOCYTE [4] was 92.33%. The “MEAN CORPUSCULAR HEMOGLOBIN” value [4] was 24.67 pg, the “MEAN CORPUSCULAR HEMOGLOBIN CONCENTRATION” value [4] was 40.67 G/DL and the “MEAN CORPUSCULAR VOLUME” value [4] was 60.77 fL. For the same compound, the MONOCYTE [4] was 1%, the NEUTROPHIL [4] was 6.67% and the “NUCLEATED RED BLOOD CELLS” value [4] was 0 /100WBC. The “PLATELET COUNT” value [4] was 1249.33 x10E3/uL, the “ALANINE AMINOTRANSFERASE” value [4] was 68 u/L and the ALBUMIN [4] was 4.23 G/DL. For the same compound, the “ALKALINE PHOSPHATASE” value [4] was 385.33 u/L, the “ASPARTATE AMINOTRANSFERASE” value [4] was 101.67 u/L and the “BLOOD UREA NITROGEN” value [4] was 21.67 mg/dL. The “CARBON DIOXIDE” value [4] was 33.67 mmol/L, the CHLORIDE [4] was 102.33 MEQ/L and the CHOLESTEROL [4] was 76.67 mg/dL. The “CREATINE PHOSPHOKINASE” value [4] was 356 u/L, the CREATININE [4] was 0.23 mg/dL and the GLUCOSE [4] was 153.67 mg/dL. For the same compound, the “LACTATE DEHYDROGENASE” value [4] was 345 u/L, the LIPASE [4] was 10.33 u/L and the PHOSPHORUS [4] was 12.8 mg/dL. For the same compound, the POTASSIUM [4] was 7.54 MEQ/L, the SODIUM [4] was 145.93 MEQ/L and the “TOTAL BILIRUBIN” value [4] was 0.1 mg/dL. The “TOTAL PROTEIN” value [4] was 5.93 G/DL and the “URIC ACID” value [4] was 1.6 mg/dL.
